Tests used:
Format in all cases: cell-based, human
Caco2 cells [1] = assay: Glucose uptake assay; set-up: key to * (regulatory effect on glucose uptake): ↑: the arrows that point up represent the enhancing effect on the glucose uptake; conditions: for Uptake rate (glucose): 48 hours, 25 mM glucose
Description: To evaluate the effect of the isolated astragaloside compound on the uptake of nutrient substances across the intestinal lumen, Caco-2 cells were grown on permeable filter as an experimental model. Caco2 cells originate from human colonic adenocarcinoma and spontaneously differentiate into an enterocyte-like phenotype after two weeks. The Caco-2 cell line, derived from a human colorectal carcinoma, has been used as an in vitro model system for studying drug absorption in gastrointestinal tract. These cells form monolayers with well-developed tight-junctions, and have been evaluated in details as an in vitro model to study both transcellular transport of nutrients and drugs in intestinal lumen.
Caco-2 cells were obtained from the ATCC (American Type Culture Collection). The cells were maintained in Dulbecco's modified Eagle medium (DMEM) containing 4.5 g/L glucose and 25 mM Hepes, supplemented with 10% fetal calf serum, 100 U/mL penicillin G and […]. The medium was changed every second day. The cells were routinely checked for Mycoplasma in monthly intervals. Caco-2 cells were cultured on semi-permeable membranes to differentiate into a highly functionalized epithelial barrier with remarkable morphological and biochemical similarity to the small intestinal columnar epithelium. The Caco-2 cell monolayers could therefore be used to study the membrane transport properties of many compounds. To trypsinize the cells, the culture dish was washed once with phosphate-buffered saline (PBS) followed by adding trypsine-EDTA for 10 minutes. The trypsinized cells were separated and filtered into single cells using a 35-μm strainer cap (Falcon 2235) before being seeded for further experiments.
Caco-2 cells (5×10^4) were seeded in a 48-well plate and maintained in culture medium (DMEM with 10% FBS, 1% nonessential amino acids, L-glutamine, penicillin G (100 U/mL), streptomycin (10 μg/mL), and amphotericin B (2.5 μg/mL) in a 37° C. incubator for 10 days for the cells to differentiate. The culture medium was changed once every two days. The cells were then washed with PBS before replenishing with the culture medium containing 5% FBS and various astragalosides at the indicated concentrations (0.01, 0.1 and 1 μM) for 48 hours. The Caco2 cells were washed out of remaining glucose with PBS and replaced in the glucose buffer (80 mM NaCl, 100 mM mannitol, 20 mM Tris-HCl, pH 7.4, 3 mM K2HPO4, 1 mM CaCl2, 1 mg/mL BSA) for 1 hour. Glucose uptake was initiated by replacing the glucose buffer with 0.2 ml of glucose buffer containing 2 μCi/mL of ^14C-glucose and unlabeled cold glucose to give a final glucose concentration of 25 mM. Glucose uptake was stopped by removing the glucose buffer and washing with PBS at designated time intervals. The cells were lysed in 0.2 mL of 0.2 N NaOH, and 20 μL of the cell lysate were transferred to the filter-bottomed UniFilter plates (Perkin-Elmer, Wellesley, Mass., USA) and dried in a vacuum oven at 37° C. The bottom of the UniFilter plate was sealed and 25 μL of the counting solution were added into each well. Adhesive plate sealers were used in place of the lids and radioactivity of each sample was counted using the microplate liquid scintillation counter (TopCount, Packard NXT, Packard BioScience Company, Meriden, Conn., USA). The amount of glucose accumulated in the cells was calculated and normalized to protein concentration, and uptake rate was expressed as nanomoles of glucose per minutes per milligram of cell protein (nmol/min/mg). Protein concentration was determined by a standard Bicinchoninic acid (BCA) protein assay. Nonspecific glucose uptake was measured by adding 2 μCi of L-[^14C]-glucose and subtracting from each determination to obtain specific glucose uptake.

Caco-2 cell monolayer [2] = assay: Arginine absorption assay (transport across Caco-2 cell monolayer); set-up: key to * (regulatory effect on arginine transport): ↑: the arrows that point up represent the enhancing effect on the arginine transport; conditions: for Transport rate (arginine): 10 mM L-arginine apical
Procedure, shortened: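 Differentiated Caco-2 monolayers on transwells, preincubated 1 h at 37° C in pH 7.4 Hepes-buffered saline with glucose. Apical 10 mM L-arginine spiked with L-[3H]-arginine; basolateral radioactivity sampled over time. Transport corrected by [3H]-mannitol, expressed as nmol/min.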

Caco-2 cell monolayer [3] = assay: Tryptophan absorption assay (transport across Caco-2 cell monolayer); set-up: key to * (regulatory effect on tryptophan transport): ↑: the arrows that point up represent the enhancing effect on the tryptophan transport
Procedure, shortened: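 Differentiated Caco-2 monolayers on transwell filters were preincubated for 1 h at 37 °C in choline chloride-based buffer at pH 7.4. Transport began when apical tryptophan was added. Basolateral samples taken over time were counted, corrected for nonspecific flux using [3H]-mannitol, and expressed as nmol/min.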

Caco2 cells [4] = assay: Folate uptake assay; set-up: key to * (regulatory effect on folate uptake): ↑: the arrows that point up represent the enhancing effect on folate uptake; conditions: compound 0.1 μM
Procedure, shortened: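 Caco-2 cells differentiated 10 days, then pretreated 2 days with 0.1 μM isolated astragalosides in 5% FBS medium. Preincubated 1 h in HBSS-based folate uptake buffer pH 6.0; uptake started with 2 μCi/mL ³H-folic acid plus unlabeled folate.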

CC(=O)O[C@@H]1[C@@H](O)[C@H](O[C@H]2CC[C@]34C[C@]35CC[C@]3(C)[C@@H]([C@@]6(C)CC[C@@H](C(C)(C)O)O6)[C@@H](O)C[C@@]3(C)[C@@H]5C[C@H](O[C@@H]3O[C@H](CO)[C@@H](O)[C@H](O)[C@H]3O)[C@H]4C2(C)C)OC[C@H]1O [IsoAS2, isoastragaloside II]
Regulatory effects on the glucose uptake of the Caco2 cells (Caco2 cells [1]; Table 2 summary): had regulatory effects on the glucose uptake
* (regulatory effect on glucose uptake) (Caco2 cells [1]; compound 0.01 μM): ↑
Percentage (glucose uptake, control = 100) (Caco2 cells [1]; compound 0.01 μM): 115.69%
Uptake rate (glucose) (Caco2 cells [1]; compound 0.01 μM): 7.3720 ± 2.5700 nmol/mg/min
* (regulatory effect on glucose uptake) (Caco2 cells [1]; compound 0.1 μM): ↑
Percentage (glucose uptake, control = 100) (Caco2 cells [1]; compound 0.1 μM): 107.05%
Uptake rate (glucose) (Caco2 cells [1]; compound 0.1 μM): 6.8210 ± 1.6630 nmol/mg/min
Percentage (glucose uptake, control = 100) (Caco2 cells [1]; compound 1 μM): 96.55%
Uptake rate (glucose) (Caco2 cells [1]; compound 1 μM): 6.1520 ± 2.4610 nmol/mg/min
Regulatory effects on the arginine transport across the Caco2 cell monolayer (Caco-2 cell monolayer [2]; Table 3 summary): had regulatory effects on the arginine transport
* (regulatory effect on arginine transport) (Caco-2 cell monolayer [2]; compound 0.01 μM): ↑
Percentage (arginine transport, control = 100) (Caco-2 cell monolayer [2]; compound 0.01 μM): 138.11%
Transport rate (arginine) (Caco-2 cell monolayer [2]; compound 0.01 μM): 14.7577 ± 0.2837 nmol/min
* (regulatory effect on arginine transport) (Caco-2 cell monolayer [2]; compound 0.1 μM): ↑
Percentage (arginine transport, control = 100) (Caco-2 cell monolayer [2]; compound 0.1 μM): 132.01%
Transport rate (arginine) (Caco-2 cell monolayer [2]; compound 0.1 μM): 14.1059 ± 0.1815 nmol/min
* (regulatory effect on arginine transport) (Caco-2 cell monolayer [2]; compound 1 μM): ↑
Percentage (arginine transport, control = 100) (Caco-2 cell monolayer [2]; compound 1 μM): 118.40%
Transport rate (arginine) (Caco-2 cell monolayer [2]; compound 1 μM): 12.6518 ± 0.3680 nmol/min
Arginine transport rate (Caco-2 cell monolayer [2]; concentration from 0.01 μM to 1 μM): increased
Regulatory effects on the tryptophan transport across the Caco2 cell monolayer (Caco-2 cell monolayer [3]; Table 4 summary): had regulatory effects on the tryptophan transport
* (regulatory effect on tryptophan transport) (Caco-2 cell monolayer [3]; compound 0.01 μM): ↑
Percentage (tryptophan transport, control = 100) (Caco-2 cell monolayer [3]; compound 0.01 μM): 145.38%
Transport rate (tryptophan) (Caco-2 cell monolayer [3]; compound 0.01 μM): 13.000 ± 0.5547 nmol/min
* (regulatory effect on tryptophan transport) (Caco-2 cell monolayer [3]; compound 0.1 μM): ↑
Percentage (tryptophan transport, control = 100) (Caco-2 cell monolayer [3]; compound 0.1 μM): 146.05%
Transport rate (tryptophan) (Caco-2 cell monolayer [3]; compound 0.1 μM): 13.060 ± 0.5530 nmol/min
* (regulatory effect on tryptophan transport) (Caco-2 cell monolayer [3]; compound 1 μM): ↑
Percentage (tryptophan transport, control = 100) (Caco-2 cell monolayer [3]; compound 1 μM): 224.45%
Transport rate (tryptophan) (Caco-2 cell monolayer [3]; compound 1 μM): 20.070 ± 0.1931 nmol/min
Tryptophan transport rate (Caco-2 cell monolayer [3]; concentration from 0.01 μM to 1 mM): increased
* (regulatory effect on folate uptake) (Caco2 cells [4]): ↑
Percentage (folate uptake vs own control) (Caco2 cells [4]): 162.87%
Uptake rate (folate) (Caco2 cells [4]; 2 days, 5 μM folate, pH 6.0): 86.63 ± 2.82 pmol/mg/min

Source: patent publication US8197860B2, “Method for enhancing nutrient absorption with astragalosides” (Nuliv Holding Inc., priority 2005, dated 2012)
